Results published in ChEMBL document CHEMBL1201862, “PubChem BioAssay data set” (2004).
The source made the active and inactive calls.

Assays:
[1] = molecular target: Heat shock protein HSP 90-alpha (Homo sapiens, UniProt P07900); type: functional, organism-based
Cytochrome P450 2C19 = Cytochrome P450 2C19 (Homo sapiens, UniProt P33261); test: Cytochrome panel assay with activity outcomes. Panel member name: p450-cyp2c19 Compounds with AC50 equal or less than 10 uM are considered active; type: functional; details: read-out: AC50
Cytochrome P450 2D6 = Cytochrome P450 2D6 (Homo sapiens, UniProt P10635);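 also: CYP2D6 member of a cytochrome P450 panel assay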
[2] = molecular target: Glucose-6-phosphate 1-dehydrogenase (Homo sapiens, UniProt P11413); test: human G6PD enzyme inhibitors, dose response, selectivity assay for P. falciparum G6PD inhibitor project, biochemical, fluorescence (AID 504792); type: functional
Genome polyprotein = Genome polyprotein (dengue virus type 2, UniProt P29990); test: Dengue-2 NS5 methyltransferase inhibitors, primary screen, biochemical, confirmation dose response (AID 588689); type: functional
Steroidogenic factor 1 = Steroidogenic factor 1 (Homo sapiens, UniProt Q13285); test: Counterscreen for inverse agonists of the liver receptor homolog-1 (LRH-1; NR5A2): Luminescence-based cell-based high throughput dose response assay to identify inverse agonists of the Steroidogenic Factor 1 Nuclear Receptor (SF1; NR5A1).; type: functional
[3] = StAR promoter reporter inhibition counter-screen, dose response, counter-screen for LRH-1 inverse agonist project, cell-based, luminescence, luciferase reporter (AID 651969); type: functional
[4] = molecular target: Nuclear receptor subfamily 5 group A member 2 (Homo sapiens, UniProt O00482); type: functional, cell-based;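 also: HEK293T cells transfected with LRH-1 and a StAR promoter luciferase reporter; potency for inhibitors that lower LRH-1 driven reporter light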
cells = type: functional
[5] = Vero E6 cell cytotoxicity, dose response, cytotoxicity control for non-replicating M. tuberculosis project, secondary assay (AID 492998); type: functional, VeroE6; details: Vero C1008
[6] = THP-1 cell cytotoxicity, dose response, cytotoxicity control for non-replicating M. tuberculosis project (AID 489025); type: functional
[7] = cytotoxicity toward NIH3T3 fibroblasts, dose response, counter-screen, cell-based, ATP luminescence, mouse fibroblasts (AID 2010); type: functional;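 also: cells exposed to compound for about 90 hours before reading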
[8] = inhibitors of intracellular T. cruzi replication, confirmation, NIH3T3 host cells, beta-gal luminescence (AID 2044); type: functional, cell-based;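 also: intracellular parasites grown in NIH/3T3 mouse fibroblasts as host cells; luminescent beta-galactosidase reporter signal from transgenic T. cruzi replicating inside host cells; inhibitors lower the luminescence signal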
Streptococcus = test: Group A Streptococcus viability loss, dose response, counter-screen for streptokinase expression inhibitor project, luminescence, BacTiterGlo (AID 1915); type: functional, organism-based;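 also: potency for reduction of bacterial viability or growth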
Streptokinase A = molecular target: T1, Streptokinase A (Streptococcus pyogenes serotype M1, UniProt P10520); test: S. pyogenes streptokinase expression inhibitors, potency, dose response, plasminogen activation absorbance, OD405 (AID 1914); type: functional, Streptococcus pyogenes M1 GAS;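 also: secreted streptokinase activity via plasminogen activation per viability signal from cell pellet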
T1 sequence (P10520 whole entry): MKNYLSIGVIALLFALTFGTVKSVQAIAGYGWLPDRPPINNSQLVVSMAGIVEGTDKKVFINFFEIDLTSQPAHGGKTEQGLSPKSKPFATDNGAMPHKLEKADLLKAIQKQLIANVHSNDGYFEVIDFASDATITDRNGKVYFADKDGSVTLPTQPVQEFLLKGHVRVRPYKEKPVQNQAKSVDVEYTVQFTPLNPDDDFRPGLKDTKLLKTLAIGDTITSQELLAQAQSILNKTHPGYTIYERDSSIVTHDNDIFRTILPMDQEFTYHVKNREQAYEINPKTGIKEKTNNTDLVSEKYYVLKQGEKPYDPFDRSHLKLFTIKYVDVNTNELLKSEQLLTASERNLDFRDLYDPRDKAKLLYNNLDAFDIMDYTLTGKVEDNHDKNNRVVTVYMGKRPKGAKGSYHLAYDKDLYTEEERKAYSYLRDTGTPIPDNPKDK

[9] = test system: Streptococcus sp. 'group A'; test: growth inhibition of control SK(-) GAS strain, dose response, counter-screen for streptokinase expression inhibitor project, luminescence, kanamycin, BacTiterGlo, confirmation (AID 1900); type: functional, organism-based
[10] = molecular target: T2, DNA repair and recombination protein RAD54-like (Homo sapiens, UniProt Q92698); test: inhibitors of human RAD54 branch migration, confirmation, biochemical, fluorescence, cherry-picked samples, dose series (AID 651657); type: functional
T2 sequence (Q92698 whole entry): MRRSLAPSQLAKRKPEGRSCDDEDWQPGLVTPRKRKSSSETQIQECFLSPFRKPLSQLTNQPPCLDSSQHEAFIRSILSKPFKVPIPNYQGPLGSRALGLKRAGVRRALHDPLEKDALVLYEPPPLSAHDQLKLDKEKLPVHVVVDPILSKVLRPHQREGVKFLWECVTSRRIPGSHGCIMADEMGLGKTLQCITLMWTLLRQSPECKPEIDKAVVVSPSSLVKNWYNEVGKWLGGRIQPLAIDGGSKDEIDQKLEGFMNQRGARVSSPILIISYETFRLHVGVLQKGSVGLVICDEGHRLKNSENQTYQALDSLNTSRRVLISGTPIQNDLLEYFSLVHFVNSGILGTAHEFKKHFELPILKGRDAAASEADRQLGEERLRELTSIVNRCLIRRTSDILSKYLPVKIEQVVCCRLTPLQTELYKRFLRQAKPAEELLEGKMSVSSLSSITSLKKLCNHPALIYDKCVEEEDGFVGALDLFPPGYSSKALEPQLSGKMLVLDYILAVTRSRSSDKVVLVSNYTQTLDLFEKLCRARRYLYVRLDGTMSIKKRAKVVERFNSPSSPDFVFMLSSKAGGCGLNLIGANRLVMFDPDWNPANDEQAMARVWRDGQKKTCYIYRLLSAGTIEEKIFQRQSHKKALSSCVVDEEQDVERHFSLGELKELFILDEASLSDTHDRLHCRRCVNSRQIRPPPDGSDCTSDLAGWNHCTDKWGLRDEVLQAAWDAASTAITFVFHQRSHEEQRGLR

[11] = molecular target: T3, DNA repair protein RAD52 homolog (Homo sapiens, UniProt P43351); type: functional, biochemical
T3 sequence (P43351 whole entry): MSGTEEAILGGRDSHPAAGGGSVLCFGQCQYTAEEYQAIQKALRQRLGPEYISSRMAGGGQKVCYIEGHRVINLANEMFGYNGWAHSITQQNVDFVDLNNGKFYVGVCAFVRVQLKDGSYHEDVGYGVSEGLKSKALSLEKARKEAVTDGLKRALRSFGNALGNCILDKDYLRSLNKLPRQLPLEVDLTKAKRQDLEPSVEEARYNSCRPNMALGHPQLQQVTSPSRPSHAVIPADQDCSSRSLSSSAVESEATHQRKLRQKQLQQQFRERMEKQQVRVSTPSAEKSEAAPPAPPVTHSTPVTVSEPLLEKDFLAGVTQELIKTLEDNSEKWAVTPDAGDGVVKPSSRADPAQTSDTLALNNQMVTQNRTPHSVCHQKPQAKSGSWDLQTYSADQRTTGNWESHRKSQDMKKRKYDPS

[12] = AlphaScreen signal interference compounds, dose response, artefact control for ARNT-TACC3 interaction inhibitor project, biochemical, luminescence, cherry-pick (AID 651705); type: functional;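 also: AlphaScreen bead proximity signal that flags compounds interfering with the detection technology; potency reflects signal decrease which marks the compound as an assay artifact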
[13] = molecular target: T4, Type-1 angiotensin II receptor (Homo sapiens, UniProt P30556); test: AT1 receptor antagonists, dose response, selectivity assay for APJ receptor antagonist project, cell-based, uHTS hits (AID 463214); type: functional;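 also: antagonist potency against angiotensin II stimulated AT1 response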
T4 sequence (P30556 whole entry): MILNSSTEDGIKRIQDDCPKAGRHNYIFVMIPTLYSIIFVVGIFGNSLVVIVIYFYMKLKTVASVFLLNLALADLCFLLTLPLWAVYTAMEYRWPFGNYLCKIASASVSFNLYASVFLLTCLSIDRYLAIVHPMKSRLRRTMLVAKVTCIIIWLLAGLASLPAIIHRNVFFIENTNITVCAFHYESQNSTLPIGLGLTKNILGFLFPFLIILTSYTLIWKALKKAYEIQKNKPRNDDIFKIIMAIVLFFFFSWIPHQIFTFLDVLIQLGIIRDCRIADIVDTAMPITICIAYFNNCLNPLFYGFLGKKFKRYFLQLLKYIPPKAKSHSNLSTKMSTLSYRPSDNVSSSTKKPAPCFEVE

Beta-galactosidase = Beta-galactosidase (Escherichia coli, UniProt Q8VNN2); test: PubChem AID 485352; type: functional
[14] = molecular target: T5, Short transient receptor potential channel 4 (Mus musculus, UniProt Q9QUQ5); test: mouse TRPC4 channel inhibitors, dose response, cell-based, HEK293 TRPC4/mu-opioid, Fluo-4 calcium (AID 434942); type: functional;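 also: potency of inhibitors blocking the TRPC4 calcium response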
T5 sequence (Q9QUQ5 whole entry): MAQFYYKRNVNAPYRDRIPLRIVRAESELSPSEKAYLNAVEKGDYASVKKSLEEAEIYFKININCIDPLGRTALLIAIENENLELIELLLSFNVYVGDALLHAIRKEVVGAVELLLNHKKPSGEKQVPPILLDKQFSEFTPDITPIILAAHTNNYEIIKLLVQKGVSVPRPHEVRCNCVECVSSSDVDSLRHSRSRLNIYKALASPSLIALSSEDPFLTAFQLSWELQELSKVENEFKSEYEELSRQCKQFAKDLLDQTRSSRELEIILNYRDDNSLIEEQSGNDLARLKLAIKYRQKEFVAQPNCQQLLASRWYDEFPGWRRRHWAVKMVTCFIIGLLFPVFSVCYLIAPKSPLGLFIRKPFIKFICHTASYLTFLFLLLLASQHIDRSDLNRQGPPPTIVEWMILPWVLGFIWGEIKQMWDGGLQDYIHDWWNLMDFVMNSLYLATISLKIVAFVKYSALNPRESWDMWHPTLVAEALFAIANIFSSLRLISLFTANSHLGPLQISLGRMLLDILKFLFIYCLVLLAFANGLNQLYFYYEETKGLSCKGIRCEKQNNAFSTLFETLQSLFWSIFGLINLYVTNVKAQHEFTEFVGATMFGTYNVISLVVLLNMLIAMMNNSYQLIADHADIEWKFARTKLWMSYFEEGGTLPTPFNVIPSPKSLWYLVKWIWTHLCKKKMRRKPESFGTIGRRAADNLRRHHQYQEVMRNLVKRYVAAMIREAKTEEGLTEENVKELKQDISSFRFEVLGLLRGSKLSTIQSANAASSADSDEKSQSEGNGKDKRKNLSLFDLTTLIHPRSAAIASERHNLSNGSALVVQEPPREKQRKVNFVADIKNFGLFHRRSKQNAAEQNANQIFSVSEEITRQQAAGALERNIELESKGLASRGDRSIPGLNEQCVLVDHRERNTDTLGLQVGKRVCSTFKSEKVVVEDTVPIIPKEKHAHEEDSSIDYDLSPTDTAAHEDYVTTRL

Protein skinhead-1 = molecular target: T6, Protein skinhead-1 (Caenorhabditis elegans, UniProt P34707); type: functional
T6 sequence (P34707 whole entry): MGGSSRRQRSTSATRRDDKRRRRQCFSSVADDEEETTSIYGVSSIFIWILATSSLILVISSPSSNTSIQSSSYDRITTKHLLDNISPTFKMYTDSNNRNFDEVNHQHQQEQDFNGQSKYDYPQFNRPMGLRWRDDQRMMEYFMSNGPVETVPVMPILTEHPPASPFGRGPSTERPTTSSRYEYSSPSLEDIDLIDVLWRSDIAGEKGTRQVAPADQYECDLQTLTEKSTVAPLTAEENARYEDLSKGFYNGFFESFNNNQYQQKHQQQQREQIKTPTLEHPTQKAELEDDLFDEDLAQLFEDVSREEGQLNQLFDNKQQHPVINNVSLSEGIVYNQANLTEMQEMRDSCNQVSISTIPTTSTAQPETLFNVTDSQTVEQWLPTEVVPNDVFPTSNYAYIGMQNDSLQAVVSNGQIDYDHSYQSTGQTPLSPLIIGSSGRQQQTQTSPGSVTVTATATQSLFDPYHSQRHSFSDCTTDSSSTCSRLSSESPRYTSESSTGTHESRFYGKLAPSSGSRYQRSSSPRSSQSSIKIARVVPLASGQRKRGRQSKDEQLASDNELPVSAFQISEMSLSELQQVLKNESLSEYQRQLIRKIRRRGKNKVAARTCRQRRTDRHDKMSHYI

Steroidogenic factor 1, sequence (Q13285 whole entry): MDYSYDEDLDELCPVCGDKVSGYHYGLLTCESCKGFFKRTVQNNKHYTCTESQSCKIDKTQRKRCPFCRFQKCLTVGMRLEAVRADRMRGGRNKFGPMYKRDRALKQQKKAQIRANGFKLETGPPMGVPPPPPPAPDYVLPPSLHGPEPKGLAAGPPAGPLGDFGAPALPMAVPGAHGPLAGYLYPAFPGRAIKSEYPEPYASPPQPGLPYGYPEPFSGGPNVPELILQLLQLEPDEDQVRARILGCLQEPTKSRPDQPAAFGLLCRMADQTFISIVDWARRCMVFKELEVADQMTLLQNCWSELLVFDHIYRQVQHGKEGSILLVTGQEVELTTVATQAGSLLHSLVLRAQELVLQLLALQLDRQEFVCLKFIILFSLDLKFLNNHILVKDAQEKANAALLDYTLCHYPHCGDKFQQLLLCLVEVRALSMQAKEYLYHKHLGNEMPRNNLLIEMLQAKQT
Nuclear receptor subfamily 5 group A member 2, sequence (O00482 whole entry): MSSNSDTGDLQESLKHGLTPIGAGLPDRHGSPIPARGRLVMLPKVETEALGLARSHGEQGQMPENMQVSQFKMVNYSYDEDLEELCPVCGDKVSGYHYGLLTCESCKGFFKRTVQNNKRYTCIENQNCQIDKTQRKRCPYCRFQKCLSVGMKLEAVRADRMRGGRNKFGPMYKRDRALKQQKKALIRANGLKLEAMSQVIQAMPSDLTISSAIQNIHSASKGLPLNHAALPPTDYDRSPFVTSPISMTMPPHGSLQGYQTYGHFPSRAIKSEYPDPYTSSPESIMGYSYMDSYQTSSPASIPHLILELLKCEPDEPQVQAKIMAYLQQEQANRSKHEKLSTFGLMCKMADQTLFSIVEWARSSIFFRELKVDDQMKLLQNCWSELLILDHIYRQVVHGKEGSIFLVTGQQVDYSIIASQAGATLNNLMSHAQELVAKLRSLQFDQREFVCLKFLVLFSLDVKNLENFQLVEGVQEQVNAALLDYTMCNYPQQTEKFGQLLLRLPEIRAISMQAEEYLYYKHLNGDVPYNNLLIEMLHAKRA
Glucose-6-phosphate 1-dehydrogenase, sequence (P11413 whole entry): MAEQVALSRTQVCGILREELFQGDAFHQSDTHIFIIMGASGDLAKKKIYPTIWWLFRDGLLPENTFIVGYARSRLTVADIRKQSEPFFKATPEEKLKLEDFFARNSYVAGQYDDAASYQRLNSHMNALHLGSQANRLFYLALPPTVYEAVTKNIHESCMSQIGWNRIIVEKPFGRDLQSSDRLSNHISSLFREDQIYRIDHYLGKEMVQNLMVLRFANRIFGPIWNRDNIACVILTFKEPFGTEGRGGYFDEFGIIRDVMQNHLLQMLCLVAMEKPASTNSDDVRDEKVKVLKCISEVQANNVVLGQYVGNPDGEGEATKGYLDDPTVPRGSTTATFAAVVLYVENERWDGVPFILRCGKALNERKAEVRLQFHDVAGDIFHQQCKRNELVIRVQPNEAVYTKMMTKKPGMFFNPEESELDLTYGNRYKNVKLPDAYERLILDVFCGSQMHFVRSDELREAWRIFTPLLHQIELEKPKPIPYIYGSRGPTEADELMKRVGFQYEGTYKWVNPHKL
Cytochrome P450 2C19, sequence (P33261 whole entry): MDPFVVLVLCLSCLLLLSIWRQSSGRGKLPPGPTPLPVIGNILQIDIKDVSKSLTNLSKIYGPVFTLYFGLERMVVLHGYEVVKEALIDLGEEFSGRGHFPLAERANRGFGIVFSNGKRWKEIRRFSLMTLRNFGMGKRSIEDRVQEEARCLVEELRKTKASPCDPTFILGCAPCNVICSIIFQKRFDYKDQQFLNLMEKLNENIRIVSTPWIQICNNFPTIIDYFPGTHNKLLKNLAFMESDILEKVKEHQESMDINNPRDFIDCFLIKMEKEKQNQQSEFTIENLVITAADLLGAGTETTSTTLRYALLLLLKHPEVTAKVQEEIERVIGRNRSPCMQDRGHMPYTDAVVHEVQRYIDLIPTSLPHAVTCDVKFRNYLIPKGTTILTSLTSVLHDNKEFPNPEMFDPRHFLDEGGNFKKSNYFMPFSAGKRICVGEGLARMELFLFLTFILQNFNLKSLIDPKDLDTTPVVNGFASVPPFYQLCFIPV
Genome polyprotein, sequence (P29990 2492-3391 limits assumed): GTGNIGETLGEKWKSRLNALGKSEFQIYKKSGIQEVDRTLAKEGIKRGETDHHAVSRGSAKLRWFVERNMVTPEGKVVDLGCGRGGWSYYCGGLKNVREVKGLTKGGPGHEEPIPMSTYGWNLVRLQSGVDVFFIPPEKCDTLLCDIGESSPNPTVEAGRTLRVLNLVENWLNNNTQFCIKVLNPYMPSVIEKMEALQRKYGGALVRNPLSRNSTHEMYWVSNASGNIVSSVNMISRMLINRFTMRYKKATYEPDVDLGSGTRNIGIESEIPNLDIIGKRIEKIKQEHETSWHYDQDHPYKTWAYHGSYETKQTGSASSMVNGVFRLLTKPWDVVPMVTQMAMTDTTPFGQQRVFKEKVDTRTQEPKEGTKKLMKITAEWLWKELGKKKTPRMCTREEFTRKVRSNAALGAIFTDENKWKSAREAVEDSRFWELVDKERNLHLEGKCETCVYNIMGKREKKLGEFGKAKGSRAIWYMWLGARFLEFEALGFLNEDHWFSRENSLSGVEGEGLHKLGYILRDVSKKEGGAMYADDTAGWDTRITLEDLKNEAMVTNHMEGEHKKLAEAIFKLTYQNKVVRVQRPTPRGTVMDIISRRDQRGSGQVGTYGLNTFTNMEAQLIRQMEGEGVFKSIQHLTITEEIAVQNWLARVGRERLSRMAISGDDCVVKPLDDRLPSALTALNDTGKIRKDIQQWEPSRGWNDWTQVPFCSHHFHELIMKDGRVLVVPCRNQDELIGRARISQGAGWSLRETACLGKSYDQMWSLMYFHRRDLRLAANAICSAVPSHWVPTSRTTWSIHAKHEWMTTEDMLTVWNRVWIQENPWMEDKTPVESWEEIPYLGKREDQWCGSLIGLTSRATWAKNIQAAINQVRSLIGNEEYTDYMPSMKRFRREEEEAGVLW
Cytochrome P450 2D6, sequence (P10635 whole entry): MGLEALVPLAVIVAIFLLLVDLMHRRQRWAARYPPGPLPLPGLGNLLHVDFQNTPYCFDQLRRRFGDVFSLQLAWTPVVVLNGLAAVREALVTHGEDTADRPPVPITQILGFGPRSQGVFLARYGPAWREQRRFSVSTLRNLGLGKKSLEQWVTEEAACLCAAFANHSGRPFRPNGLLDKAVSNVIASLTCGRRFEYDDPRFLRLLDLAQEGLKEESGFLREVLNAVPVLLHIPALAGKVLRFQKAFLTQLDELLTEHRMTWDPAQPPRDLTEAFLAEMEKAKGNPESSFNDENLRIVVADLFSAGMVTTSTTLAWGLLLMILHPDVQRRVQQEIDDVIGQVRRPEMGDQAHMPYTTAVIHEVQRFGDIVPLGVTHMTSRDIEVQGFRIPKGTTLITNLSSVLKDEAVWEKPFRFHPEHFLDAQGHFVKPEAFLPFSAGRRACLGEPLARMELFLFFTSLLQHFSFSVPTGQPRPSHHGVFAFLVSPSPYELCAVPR
Beta-galactosidase, sequence (Q8VNN2 whole entry): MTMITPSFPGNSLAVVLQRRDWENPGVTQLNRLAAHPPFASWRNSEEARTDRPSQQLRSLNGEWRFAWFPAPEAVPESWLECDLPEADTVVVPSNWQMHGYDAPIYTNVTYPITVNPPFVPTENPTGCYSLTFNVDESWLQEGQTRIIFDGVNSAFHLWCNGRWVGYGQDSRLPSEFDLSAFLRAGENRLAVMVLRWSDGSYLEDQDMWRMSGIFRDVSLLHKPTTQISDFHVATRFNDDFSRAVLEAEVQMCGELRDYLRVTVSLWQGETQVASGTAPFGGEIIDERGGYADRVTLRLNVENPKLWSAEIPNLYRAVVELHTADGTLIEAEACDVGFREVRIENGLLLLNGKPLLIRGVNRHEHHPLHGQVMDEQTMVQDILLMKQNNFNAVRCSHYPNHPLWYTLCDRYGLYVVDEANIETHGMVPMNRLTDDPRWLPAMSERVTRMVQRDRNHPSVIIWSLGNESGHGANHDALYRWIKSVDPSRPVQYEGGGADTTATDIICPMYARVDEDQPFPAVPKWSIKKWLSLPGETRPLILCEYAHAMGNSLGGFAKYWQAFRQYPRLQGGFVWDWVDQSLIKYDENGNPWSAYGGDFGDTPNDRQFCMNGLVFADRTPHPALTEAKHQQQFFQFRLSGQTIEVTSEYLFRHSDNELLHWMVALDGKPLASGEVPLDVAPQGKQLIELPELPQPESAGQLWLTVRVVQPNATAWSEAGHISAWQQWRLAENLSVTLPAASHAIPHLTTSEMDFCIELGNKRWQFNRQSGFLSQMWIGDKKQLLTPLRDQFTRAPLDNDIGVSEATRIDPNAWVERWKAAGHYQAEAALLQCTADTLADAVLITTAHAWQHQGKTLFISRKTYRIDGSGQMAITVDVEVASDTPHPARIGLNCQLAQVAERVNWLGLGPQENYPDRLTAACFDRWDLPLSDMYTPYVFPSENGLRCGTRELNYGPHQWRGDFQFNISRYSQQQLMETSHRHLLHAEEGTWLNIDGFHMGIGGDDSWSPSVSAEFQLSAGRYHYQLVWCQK

Cc1cc(C)c2c(N=NN(C)C)[nH]nc2n1
AC50 [1]: 3.96 µM (active) | AC50 (Cytochrome P450 2C19): 39.8 µM (inconclusive) | AC50 (Cytochrome P450 2D6): 14.1 µM (inconclusive)

Oc1cc(CNCc2ccccc2)c(O)cc1CNCc1ccccc1
IC50 [2]: > 80 µM (inactive) | IC50 (Genome polyprotein): 37.4 µM (active)

COc1ccc(NC(=O)CN2C(=O)NC3(CCCC3)C2=O)cc1
IC50 (Steroidogenic factor 1): 35.9 µM (inactive) | IC50 [3]: 35.9 µM (inactive) | IC50 [4]: 35.9 µM (inactive)

C=CCc1ccc(OCC(O)CN2CCN(Cc3ccc(Cl)cc3)CC2)c(OC)c1 (configuration not stated)
IC50 (cells): 23.3 µM (active) | CC50 [5]: > 20 µM (active) | CC50 [6]: > 40 µM (active)

COc1ccc(NS(=O)(=O)c2ccc(OCC(=O)N3CCN(C)CC3)cc2)cc1Cl
EC50 [7]: > 30 µM (not active) | IC50 (Steroidogenic factor 1): 5.92 µM (active) | EC50 [8]: 0.524 µM (active) | IC50 [3]: 35.9 µM (inactive) | IC50 [4]: 9.48 µM (active)

O=C(/C=C/c1cccc(C(F)(F)F)c1)Nc1cccc(C(F)(F)F)c1
AC50 [1]: 4.19 µM (active) | EC50 (Streptococcus): 4.93 µM (active) | EC50 (Streptokinase A): > 50 µM (not active) | EC50 [9]: 4.38 µM (active)

COc1cccc(/C=N/NC(=O)c2c(C)nc3ccc(Br)cn23)c1
IC50 [2]: 36 µM (inactive)

Cc1c(C)n(CCN(C)C)c2ccc(C(=O)OCCN(C)C)cc12
AC50 [10]: 8.41 µM (active) | AC50 [11]: 1.31 µM (active)

CCN(CC)C1CC(=O)N(c2ccc(Br)cc2)C1=O (configuration not stated)
AC50 [1]: 4.04 µM (active)

C/C=C/c1ccc([C@@H]2[C@H](CO)N(Cc3ccccn3)[C@H]2CNC(C)=O)cc1
AC50 [12]: 83.2 µM (active)

CC(C)c1nc(C#N)c(NN)o1
IC50 [13]: 25.3 µM (not active) | EC50 (Beta-galactosidase): > 40 µM (inactive)

O=C(c1ccco1)N1CCN(C/C=C/c2ccccc2)CC1
EC50 [14]: 0.596 µM (active) | IC50 (Protein skinhead-1): > 100 µM (inactive)

COc1cc(/C=N/NC(N)=S)ccc1OCC(=O)Nc1ccc(C)cc1
IC50 (Steroidogenic factor 1): 8.04 µM (active) | IC50 [3]: 35.9 µM (inactive) | IC50 [4]: 35.9 µM (inactive)
